Here are results for 60 sequences from the OligoGym collection.

These antisense oligonucleotides have a phosphorothioate backbone; sugars and methylation of C are not fully specified.
Further: test concentration or dose not given here.

For the data set, the target named is TRADD. The note with it: ASO.
Sequence GCCGCACTTCAGATTTCG gave a remaining target (mRNA or protein) (fraction of control) not below 1.

The sequence CCACGCTGAGTGTGAGCT registered a remaining target (mRNA or protein) (fraction of control) of 0.68.

The sequence CTCTTCGTGCCCATTTTG yielded a remaining target (mRNA or protein) (fraction of control) of 0.89.

Consider GGATGGGAGAAGGTGAGG, for which the remaining target (mRNA or protein) (fraction of control) turned out to be 0.55.

AAAGTCTGGGCAGGTGGC: the remaining target (mRNA or protein) (fraction of control) was 0.56.

Sequence TCCACAAACAGGTATGCG returned a remaining target (mRNA or protein) (fraction of control) not below 1.

CCCACCCCACACTCTATC came in with a remaining target (mRNA or protein) (fraction of control) of 0.47.

In turn, CCGACAGAGAGGGCACCG returned a remaining target (mRNA or protein) (fraction of control) not below 1.

Turning to CCCCGAGCCGCACTTCAG, the remaining target (mRNA or protein) (fraction of control) was 0.77.

In turn, TGGGCTAGGATGCAACTC showed a remaining target (mRNA or protein) (fraction of control) of 0.67.

GCTCGTACTCGTAGGCCA gave a remaining target (mRNA or protein) (fraction of control) not below 1.

The sequence GAGTCCAGCGCCGGGTCC gave a remaining target (mRNA or protein) (fraction of control) of 0.48.

As for GCACGAAGCGCCGCAGCA, the remaining target (mRNA or protein) (fraction of control) was not below 1.

CTTGCGCCATTTGAGACC: the remaining target (mRNA or protein) (fraction of control) is 0.7.

CAAGATTGATTCCTGTTT came in with a remaining target (mRNA or protein) (fraction of control) of 0.94.

The sequence CTCACCTCCTGGCCGCCT returned a remaining target (mRNA or protein) (fraction of control) of 0.76.

Consider GCGGCGGCGGCGGCTTCA, for which the remaining target (mRNA or protein) (fraction of control) was not below 1.

The sequence GTCCAGCGAGGACTCCAC gave a remaining target (mRNA or protein) (fraction of control) of 0.36.

In the case of GATGCAACTCAAACAGCG, the remaining target (mRNA or protein) (fraction of control) is not below 1.

Sequence GGAGGAAGCGGCCACAGG had a remaining target (mRNA or protein) (fraction of control) of 0.68.

GCATCCGACAGGACCACC registered a remaining target (mRNA or protein) (fraction of control) of 0.93.

The sequence AGTGAGCGCCCCACCTTG returned a remaining target (mRNA or protein) (fraction of control) of 0.98.

GTCCTTCAGGCTCAGCGG gave a remaining target (mRNA or protein) (fraction of control) of 0.75.

CCCTCGCGCTCGTACTCG registered a remaining target (mRNA or protein) (fraction of control) of 0.42.

Sequence AAAGATCAAGGTGCTTCA returned a remaining target (mRNA or protein) (fraction of control) not below 1.

For the sequence GCTGCCCACCCACTCTTC, the remaining target (mRNA or protein) (fraction of control) is not below 1.

Sequence GGAACAGAAAAGTCTGGG registered a remaining target (mRNA or protein) (fraction of control) of 0.93.

Consider CCACCTTGTCCAGCGAGG, for which the remaining target (mRNA or protein) (fraction of control) was 0.59.

Regarding CAGCGCCCGGCAGCCTCG, the remaining target (mRNA or protein) (fraction of control) is not below 1.

ATGAAGTCCAGGACACCA gave a remaining target (mRNA or protein) (fraction of control) not below 1.

ACTTTATTATCATTGCTT showed a remaining target (mRNA or protein) (fraction of control) of 0.66.

In the case of TCAGGGTCCCGTGGATGG, the remaining target (mRNA or protein) (fraction of control) is not below 1.

With GGGAAGGCAATCAACTCT, the remaining target (mRNA or protein) (fraction of control) was not below 1.

In turn, TCCTCTGCCAGGCTGGTG came in with a remaining target (mRNA or protein) (fraction of control) not below 1.

As for AAACTGTAAGGGCTGGCT, the remaining target (mRNA or protein) (fraction of control) is 0.91.

In the case of CGGTCGGGCTGCTGGGCT, the remaining target (mRNA or protein) (fraction of control) was not below 1.

For GTGCGCGTAGGCATCCGA, the remaining target (mRNA or protein) (fraction of control) is not below 1.

CATTTGAGACCCACAGAG: the remaining target (mRNA or protein) (fraction of control) turned out to be 0.83.

GCTGCTGGGCTAGGATGC: the remaining target (mRNA or protein) (fraction of control) was 0.84.

GAGGACTCCACAAACAGG registered a remaining target (mRNA or protein) (fraction of control) of 0.93.

For TCCAGGTTCTCCAAAAGC, the remaining target (mRNA or protein) (fraction of control) turned out to be 0.46.

In turn, GACCCTGGAACAGAAAAG registered a remaining target (mRNA or protein) (fraction of control) of 0.9.

CACCCACTCTTCGTGCCC: the remaining target (mRNA or protein) (fraction of control) was not below 1.

With CTGTTTTACTTCACTGCA, the remaining target (mRNA or protein) (fraction of control) was not below 1.

CGATTCACTACAGGCTGA had a remaining target (mRNA or protein) (fraction of control) of 0.86.

In turn, CGTAGGCCAGCGAGTCCA registered a remaining target (mRNA or protein) (fraction of control) not below 1.

AGCTGCCATCTCACCTCC registered a remaining target (mRNA or protein) (fraction of control) not below 1.

In turn, CCGAAGCGACCTCCCCGT had a remaining target (mRNA or protein) (fraction of control) not below 1.

In turn, CCGTGTTATACTTTATTA registered a remaining target (mRNA or protein) (fraction of control) not below 1.

Take AGTGCTGGGCGAGCGCGG: the remaining target (mRNA or protein) (fraction of control) was not below 1.

Sequence CCCAGCAAGTCCTCTGCC showed a remaining target (mRNA or protein) (fraction of control) of 0.75.

Regarding GGTATGCGCTGCCCACCC, the remaining target (mRNA or protein) (fraction of control) is not below 1.

Take GCCAGCAAAGCGTCCAGC: the remaining target (mRNA or protein) (fraction of control) was not below 1.

Consider GGTTCCCACGCCCGCCAG, for which the remaining target (mRNA or protein) (fraction of control) is not below 1.

The sequence AAGGTGAGGCTGATCTCC displayed a remaining target (mRNA or protein) (fraction of control) of 0.72.

In turn, ACCCTAAGGCCATCCAGG gave a remaining target (mRNA or protein) (fraction of control) of 0.64.

In turn, TCAGCCAGTTCTTCATCC had a remaining target (mRNA or protein) (fraction of control) not below 1.

With TGCTCGTACAGTCCCTCG, the remaining target (mRNA or protein) (fraction of control) is not below 1.

GCAGGTCCAGCAGATAGG registered a remaining target (mRNA or protein) (fraction of control) of 0.9.

In turn, CCCGCCGCTCTCTGCCAA showed a remaining target (mRNA or protein) (fraction of control) not below 1.
